The record followed here is patent US8378104B2 (OSI Pharmaceuticals, LLC, priority 2010, dated 2013).

Where a name gives a salt, the structure may show the parent alone.

In this experiment the target is T1, TAK1-TAB1 fusion protein (Homo sapiens, UniProt O43318).
T1 construct: purchased Carna
T1 sequence (O43318 with tags, fused parts or gaps limits assumed): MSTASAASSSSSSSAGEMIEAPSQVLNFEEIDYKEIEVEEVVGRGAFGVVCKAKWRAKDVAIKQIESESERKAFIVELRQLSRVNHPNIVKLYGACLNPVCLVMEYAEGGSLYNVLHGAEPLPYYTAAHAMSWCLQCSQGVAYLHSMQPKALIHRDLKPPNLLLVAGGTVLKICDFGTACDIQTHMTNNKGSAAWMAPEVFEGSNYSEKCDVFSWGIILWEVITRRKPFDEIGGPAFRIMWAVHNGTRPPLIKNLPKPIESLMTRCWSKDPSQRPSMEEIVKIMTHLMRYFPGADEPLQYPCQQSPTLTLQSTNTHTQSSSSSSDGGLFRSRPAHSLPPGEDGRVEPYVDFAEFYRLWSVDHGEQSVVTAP
Briefly: TAK1 biochemical assay (AlphaScreen, GST-MAP2K7 substrate). The following applies: TAK1-TAB1 fusion protein, GST-MAP2K7 substrate; read-out: mean TAK1 IC50 (Col. A). On the technique in general: Bead proximity is the source of the signal in Alpha formats.
As for `CC(=O)N1CCC(n2cc(-c3cnc(N)c4oc(-c5cccc6c5cnn6C)cc34)cn2)CC1` [Example 214, 1-(4-{4-[7-amino-2-(1-methyl-1H-indazol-4-yl)furo[2,3-c]pyridin-4-yl]-1H-pyrazol-1-yl}piperidin-1-yl)ethanone], the half-inhibitory concentration (IC50) is 100 to 1000 nM.

For `Nc1ncc(-c2cnn([C@H]3CC[C@H](O)CC3)c2)c2cc(-c3cc(-c4cccc(F)c4)cc4nnsc34)oc12` [Example 369, trans-4-(4-{7-amino-2-[5-(3-fluorophenyl)-1,2,3-benzothiadiazol-7-yl]furo[2,3-c]pyridin-4-yl}-1H-pyrazol-1-yl)cyclohexanol], the half-maximal inhibitory concentration (IC50) fell in the range of 1000 to 10000 nM. Take `CC(=O)N1CCC(n2cc(-c3cnc(N)c4oc(-c5ccc(C(=O)N(C)C)cc5)cc34)cn2)CC1` [Example 125, 4-{4-[1-(1-acetylpiperidin-4-yl)-1H-pyrazol-4-yl]-7-aminofuro[2,3-c]pyridin-2-yl}-N,N-dimethylbenzamide]: the half-inhibitory concentration (IC50) was above 10000 nM. For `Nc1ncc(-c2cnn(C3CCNCC3)c2)c2c(Cl)c(-c3cccc4ccsc34)oc12` [Example 13, 2-(1-benzothiophen-7-yl)-3-chloro-4-[1-(piperidin-4-yl)-1H-pyrazol-4-yl]furo[2,3-c]pyridin-7-amine hydrochloride] the value was below 100 nM.

Take `Nc1ncc(-c2cnn(C3CCNCC3)c2)c2cc(-c3ccsc3)oc12` [Example 28, 4-[1-(piperidin-4-yl)-1H-pyrazol-4-yl]-2-(thiophen-3-yl)furo[2,3-c]pyridine-7-amine]: the half-maximal inhibitory concentration (IC50) fell in the range of 1000 to 10000 nM. For `O[C@H]1CC[C@H](n2cc(-c3cncc4oc(-c5cccc6ncsc56)cc34)cn2)CC1` the value was 100 to 1000 nM.

For `COc1ccccc1COc1cccc(-c2cc3c(-c4cnn(C5CCN(C(C)=O)CC5)c4)cnc(N)c3o2)c1` [Example 212, 1-{4-[4-(7-amino-2-{3-[(2-methoxybenzyl)oxy]phenyl}furo[2,3-c]pyridin-4-yl)-1H-pyrazol-1-yl]piperidin-1-yl}ethanone], the IC50 was above 10000 nM.

For the molecule `CC(=O)N1CCC(n2cc(-c3cnc(N)c4oc(-c5ccc(OC(F)(F)F)cc5)cc34)cn2)CC1` [Example 173, 1-[4-(4-{7-amino-2-[4-(trifluoromethoxy)phenyl]furo[2,3-c]pyridin-4-yl}-1H-pyrazol-1-yl)piperidin-1-yl]ethanone], the IC50 is above 10000 nM. Regarding `Nc1ncc(-c2cnn(C3CCNCC3)c2)c2cc(-c3cccc4ccccc34)oc12` [Example 3, 2-(naphthalen-1-yl)-4-[1-(piperidin-4-yl)-1H-pyrazol-4-yl]furo[2,3-c]pyridin-7-amine], the half-inhibitory concentration (IC50) is 1000 to 10000 nM.

Turning to `COC(=O)c1ccc(-c2cnc(N)c3oc(-c4csc5cnccc45)cc23)s1` [Example 382, 5-(7-amino-2-thieno[2,3-c]pyridin-3-yl-furo[2,3-c]pyridin-4-yl)-thiophene-2-carboxylic acid methyl ester], the 50% inhibitory concentration (IC50) is above 10000 nM. For `CC(=O)N1CCC(n2cc(-c3cnc(N(C)C)c4oc(-c5csc6cnccc56)cc34)cn2)CC1` [Example 276, 1-(4-{4-[7-(dimethylamino)-2-(thieno[2,3-c]pyridin-3-yl)furo[2,3-c]pyridin-4-yl]-1H-pyrazol-1-yl}piperidin-1-yl)ethanone trifluoroacetic acid salt] the value was 1000 to 10000 nM; for `CC(=O)N1CCC(n2cc(-c3cnc(N)c4oc(-c5ccc(N)c(C)c5)cc34)cn2)CC1` [Example 140, 1-(4-{4-[7-amino-2-(4-amino-3-methylphenyl)furo[2,3-c]pyridin-4-yl]-1H-pyrazol-1-yl}piperidin-1-yl)ethanone], 1000 to 10000 nM; for `Nc1ncc(-c2cnn(C3CCNCC3)c2)c2cc(-c3ccccc3)oc12` [Example 2, 2-phenyl-4-[1-(piperidin-4-yl)-1H-pyrazol-4-yl]furo[2,3-c]pyridin-7-amine], 1000 to 10000 nM. In the case of `CC(=O)N1CCC(n2cc(-c3cnc(N)c4oc(-c5c(C#CC(C)(C)O)sc6cnccc56)cc34)cn2)CC1` [Example 265, 1-[4-(4-{7-amino-2-[2-(3-hydroxy-3-methylbut-1-yn-1-yl)thieno[2,3-c]pyridin-3-yl]furo[2,3-c]pyridin-4-yl}-1H-pyrazol-1-yl)piperidin-1-yl]ethanone trifluoroacetate], the half-maximal inhibitory concentration (IC50) fell in the range of 100 to 1000 nM. In the case of `CCOC(=O)COc1cccc(-c2cc3c(-c4cnn(C5CCN(C(C)=O)CC5)c4)cnc(N)c3o2)c1` [Example 211, ethyl (3-{4-[1-(1-acetylpiperidin-4-yl)-1H-pyrazol-4-yl]-7-aminofuro[2,3-c]pyridin-2-yl}phenoxy)acetate], the IC50 was above 10000 nM. For `Nc1ncc(-c2cc(C(=O)O)cs2)c2cc(-c3csc4cnccc34)oc12` [Example 379, 5-(7-amino-2-thieno[2,3-c]pyridin-3-yl-furo[2,3-c]pyridin-4-yl)-thiophene-3-carboxylic acid] the value was 1000 to 10000 nM. The value for `Cc1c(-c2ccc3[nH]ncc3c2)oc2c(N)ncc(-c3cnn(C4CCNCC4)c3)c12` [Example 11, 2-(1H-indazol-5-yl)-3-methyl-4-[1-(piperidin-4-yl)-1H-pyrazol-4-yl]furo[2,3-c]pyridin-7-amine hydrochloride] was 1000 to 10000 nM; that for `CC(=O)N1CCC(n2cc(-c3cnc(N)c4oc(-c5ccccc5C(F)(F)F)cc34)cn2)CC1` [Example 411, 1-[4-(4-{7-amino-2-[2-(trifluoromethyl)phenyl]furo[2,3-c]pyridin-4-yl}-1H-pyrazol-1-yl)piperidin-1-yl]ethanone] was above 10000 nM; that for `CC(=O)N1CCC(n2cc(-c3cnc(N)c4oc(-c5ccc6cc[nH]c6c5)cc34)cn2)CC1` [Example 167, 1-(4-{4-[7-amino-2-(1H-indol-6-yl)furo[2,3-c]pyridin-4-yl}-1H-pyrazol-1-yl}piperidin-1-yl)ethanone] was 1000 to 10000 nM. For `CC(=O)N1CCC(n2cc(-c3cnc(N)c4oc(-c5ccc(Cl)c(C(=O)O)c5)cc34)cn2)CC1` [Example 110, 5-{4-[1-(1-acetylpiperidin-4-yl)-1H-pyrazol-4-yl]-7-aminofuro[2,3-c]pyridin-2-yl}-2-chlorobenzoic acid hydrochloride] the value was 1000 to 10000 nM; for `N#Cc1cc(-c2cc3c(-c4cnn([C@H]5CC[C@H](O)CC5)c4)cnc(N)c3o2)ccc1N` [Example 407, 2-amino-5-{7-amino-4-[1-(trans-4-hydroxycyclohexyl)-1H-pyrazol-4-yl]furo[2,3-c]pyridin-2-yl}benzonitrile], 100 to 1000 nM. Turning to `CC(=O)N1CCC(n2cc(-c3cnc(N)c4oc(-c5ccc6c(c5)OCCO6)cc34)cn2)CC1` [Example 157, 1-(4-{4-[7-amino-2-(2,3-dihydro-1,4-benzodioxin-6-yl)furo[2,3-c]pyridin-4-yl]-1H-pyrazol-1-yl}piperidin-1-yl)ethanone], the 50% inhibitory concentration (IC50) was 100 to 1000 nM. The value for `CN(C)c1nc2cccc(-c3cc4c(-c5cnn([C@H]6CC[C@H](O)CC6)c5)cnc(N)c4o3)c2s1` [Example 371, trans-4-(4-{7-amino-2-[2-(dimethylamino)-1,3-benzothiazol-7-yl]furo[2,3-c]pyridin-4-yl}-1H-pyrazol-1-yl)cyclohexanol Trifluoroacetate (Salt)] was 1000 to 10000 nM; that for `CN(C)S(=O)(=O)Nc1cccc(-c2cc3c(-c4cnn(C5CCNCC5)c4)cnc(N)c3o2)c1` [Example 24, N′-(3-{7-amino-4-[1-(piperidin-4-yl)-1H-pyrazol-4-yl]furo[2,3-c]pyridine-2-yl}phenyl)-N,N-dimethylsulfuric diamide] was 1000 to 10000 nM.

As a reminder, the IC50 is the concentration that gives 50% inhibition.
